# Measured values published in ChEMBL document CHEMBL1154694, “Discovery of a 2,4-diamino-7-aminoalkoxyquinazoline as a potent and selective inhibitor of histone lysine methyltransferase G9a” (J Med Chem, 2009).
# Experiments:
# [1] = biological target: T1, Histone-lysine N-methyltransferase EHMT2 (Homo sapiens) (UniProt Q96KQ7); assay: Inhibition of G9a at 1 uM by Thioglo assay
# T1 sequence (whole entry): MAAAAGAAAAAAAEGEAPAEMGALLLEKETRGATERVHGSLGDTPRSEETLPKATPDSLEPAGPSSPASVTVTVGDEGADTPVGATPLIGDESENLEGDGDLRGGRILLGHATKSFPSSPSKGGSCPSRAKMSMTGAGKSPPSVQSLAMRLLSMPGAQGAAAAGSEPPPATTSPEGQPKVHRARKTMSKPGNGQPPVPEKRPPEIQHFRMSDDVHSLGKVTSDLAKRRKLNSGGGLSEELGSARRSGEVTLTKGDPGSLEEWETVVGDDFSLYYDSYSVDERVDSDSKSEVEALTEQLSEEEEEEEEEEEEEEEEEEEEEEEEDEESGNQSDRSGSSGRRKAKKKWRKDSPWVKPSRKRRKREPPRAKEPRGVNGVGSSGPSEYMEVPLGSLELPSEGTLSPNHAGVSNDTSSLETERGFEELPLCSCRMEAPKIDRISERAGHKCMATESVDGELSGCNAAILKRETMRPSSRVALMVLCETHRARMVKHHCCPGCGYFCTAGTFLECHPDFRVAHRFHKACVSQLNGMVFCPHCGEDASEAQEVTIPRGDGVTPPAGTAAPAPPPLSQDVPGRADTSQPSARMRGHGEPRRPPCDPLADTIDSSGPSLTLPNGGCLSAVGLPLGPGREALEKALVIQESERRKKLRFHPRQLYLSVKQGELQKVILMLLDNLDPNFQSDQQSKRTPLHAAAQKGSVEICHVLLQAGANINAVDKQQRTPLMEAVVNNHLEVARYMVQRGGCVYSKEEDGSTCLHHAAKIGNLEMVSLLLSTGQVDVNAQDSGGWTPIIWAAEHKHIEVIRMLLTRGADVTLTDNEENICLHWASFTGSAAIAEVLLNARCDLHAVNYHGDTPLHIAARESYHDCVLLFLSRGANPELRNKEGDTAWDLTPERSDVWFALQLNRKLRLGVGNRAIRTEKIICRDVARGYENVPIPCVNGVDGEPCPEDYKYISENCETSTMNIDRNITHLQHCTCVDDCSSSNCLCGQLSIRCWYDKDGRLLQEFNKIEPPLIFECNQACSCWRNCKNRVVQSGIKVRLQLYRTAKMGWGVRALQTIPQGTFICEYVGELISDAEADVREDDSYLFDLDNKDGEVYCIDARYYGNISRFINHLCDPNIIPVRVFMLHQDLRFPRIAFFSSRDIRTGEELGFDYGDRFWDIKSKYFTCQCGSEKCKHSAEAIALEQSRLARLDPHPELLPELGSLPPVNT
# [2] = biological target: T2, Histone-lysine N-methyltransferase EHMT2 (Homo sapiens, UniProt Q96KQ7); assay: Inhibition of G9a by Alpha screen assay
# T2 sequence (Q96KQ7 whole entry): T1 sequence (whole entry)
# [3] = biological target: T2, Histone-lysine N-methyltransferase EHMT2
# Description: Inhibition of G9a by Thioglo assay
# [4] = biological target: Histamine H1 receptor (Homo sapiens) (UniProt P35367); assay: Inhibition of histamine H1 receptor at 1 uM
# Chain of Histamine H1 receptor (Homo sapiens) (P35367 whole entry): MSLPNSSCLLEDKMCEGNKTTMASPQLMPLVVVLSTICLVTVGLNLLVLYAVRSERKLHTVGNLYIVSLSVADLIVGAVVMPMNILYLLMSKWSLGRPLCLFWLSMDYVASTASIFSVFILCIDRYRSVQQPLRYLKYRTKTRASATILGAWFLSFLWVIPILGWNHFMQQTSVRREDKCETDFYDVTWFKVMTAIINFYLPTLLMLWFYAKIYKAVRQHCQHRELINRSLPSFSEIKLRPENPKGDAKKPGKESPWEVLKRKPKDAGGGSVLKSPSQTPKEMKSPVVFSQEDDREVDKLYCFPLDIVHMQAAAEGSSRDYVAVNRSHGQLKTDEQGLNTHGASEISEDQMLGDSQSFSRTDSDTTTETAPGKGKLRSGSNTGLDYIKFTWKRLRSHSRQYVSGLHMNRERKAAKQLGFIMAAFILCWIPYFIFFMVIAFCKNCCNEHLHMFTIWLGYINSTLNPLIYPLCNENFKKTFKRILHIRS
# [5] = biological target: T3, Muscarinic acetylcholine receptor M2 (Homo sapiens) (UniProt P08172); assay: Inhibition of muscarinic M2 receptor at 1 uM
# T3 sequence (whole entry): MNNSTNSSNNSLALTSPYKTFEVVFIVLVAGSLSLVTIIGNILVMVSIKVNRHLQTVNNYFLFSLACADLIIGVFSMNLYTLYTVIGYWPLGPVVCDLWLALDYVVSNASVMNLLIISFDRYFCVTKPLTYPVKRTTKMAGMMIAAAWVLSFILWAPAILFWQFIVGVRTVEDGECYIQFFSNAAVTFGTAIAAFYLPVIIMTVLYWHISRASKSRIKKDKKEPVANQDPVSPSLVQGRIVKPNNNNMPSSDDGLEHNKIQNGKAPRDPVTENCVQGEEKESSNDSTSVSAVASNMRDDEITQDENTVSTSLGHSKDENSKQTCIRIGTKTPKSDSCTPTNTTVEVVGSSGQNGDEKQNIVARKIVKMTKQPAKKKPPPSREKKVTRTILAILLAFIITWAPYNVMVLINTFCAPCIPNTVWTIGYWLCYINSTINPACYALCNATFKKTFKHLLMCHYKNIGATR
SMILES,inhibition [1] [%],IC50 [2] [µM],IC50 [3] [µM],inhibition [4] [%],inhibition [5] [%]
COc1cc2nc(N3CCCN(C)CC3)nc(NC(C)C)c2cc1OC,< 30,5.8,,,
COc1cc2nc(N3CCCN(C)CC3)nc(NC3CCOCC3)c2cc1OC,< 30,> 10,,,
COc1cc2nc(N3CCOCC3)nc(NC3CCN(C)CC3)c2cc1OC,,0.81,1.6,,
COc1cc2nc(N3CCCN(C)CC3)nc(NC3CCNCC3)c2cc1OC,< 30,> 10,,,
COc1cc2nc(Cl)nc(NC3CCN(C)CC3)c2cc1OC,< 30,9.1,,,

# The next lines start with the values.
inhibition [1] [%],IC50 [2] [µM],IC50 [3] [µM],inhibition [4] [%],inhibition [5] [%],SMILES
,0.51,0.55,,,COc1cc2nc(N3CCCCC3)nc(NC3CCN(C)CC3)c2cc1OC
< 30,5.1,,,,COc1cc2nc(N3CCCN(C)CC3)nc(NC3CC3)c2cc1OC
,,,31,82,COc1cc2c(NC3CCN(C)CC3)nc(N3CCCN(C)CC3)nc2cc1OCCCN(C)C
